Assay results as given in US12617777B2, “GPR84 antagonists and uses thereof” (Liminal BioSciences Limited, priority 2021, dated 2026).

Molecular target: T1, human GPR84 receptor (Homo sapiens, UniProt Q9NQS5)
T1 construct: host or cells: HEK293, transient transfection
Experiment: Gαi biosensor BRET assay in HEK293 cells (antagonism of ZQ-16)
Assay type: cell-based
Details: for inhibition at 25 µM: HEK293, single concentration 25 μM (designated I); for inhibition at 10 µM: HEK293, single concentration 10 μM (designated F); for IC50: HEK293 cells, antagonism of 200 nmol/L ZQ-16; for inhibition at 2 µM: HEK293, single concentration 2 μM (designated A)
How it was run: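 Antagonist mode: test compound 5 min at 37° C, followed by ZQ-16 agonist (200 nmol/L, 5 min, room temperature), in HEK293 cells transfected with GPR84 plus Rluc8-tagged Gαi2, GFP10-Gγ2 and Gβ1. Readout as GFP10/Rluc8 emission ratio after 5 μmol/L coelenterazine 400A, net of Rluc8-only and vehicle signal.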

T1 sequence (Q9NQS5 whole entry): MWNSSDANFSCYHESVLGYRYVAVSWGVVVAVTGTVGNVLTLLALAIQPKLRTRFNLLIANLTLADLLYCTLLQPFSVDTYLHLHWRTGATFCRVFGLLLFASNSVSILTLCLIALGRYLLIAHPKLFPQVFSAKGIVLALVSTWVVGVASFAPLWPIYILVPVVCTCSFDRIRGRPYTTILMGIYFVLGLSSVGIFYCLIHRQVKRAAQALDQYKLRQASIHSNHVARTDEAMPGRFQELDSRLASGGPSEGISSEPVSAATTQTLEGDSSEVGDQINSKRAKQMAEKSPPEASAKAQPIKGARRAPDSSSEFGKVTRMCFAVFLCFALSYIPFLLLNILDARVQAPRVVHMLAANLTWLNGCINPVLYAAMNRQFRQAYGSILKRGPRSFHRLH

SMILES | inhibition at 10 µM | other results
C(#CC1CC1)c1ccc(-c2cnn(CC3CCCCO3)c2)cc1 (stereo not shown) [Compound I-317] | – | inhibition at 25 µM: ≤ 25%
Cc1cc(N2CC(C)(C)C2)ccc1-c1cn(CC2OCC(C)(C)CO2)nn1 [Compound I-665] | > 75% | IC50: ≤ 300 nM
CCc1cc(C#CCN(C)CC2CC2)cnc1-c1cn(CC2CCCCO2)nn1 (stereo not shown) [Compound I-276] | > 75% | –
CC1(C)CN(c2ccc(-c3cn(CC4CCCCO4)nn3)c(Cl)c2)C1 (stereo not shown) [Compound I-254] | 25 to 50% | –
COC(=O)N1CCCCC1Cn1cc(-c2ccc(C#CC3CC3)cc2C)nn1 (stereo not shown) [Compound I-190] | ≤ 25% | –
Cc1cc(C#CC2CC2)ccc1-c1cn(CCOCC2COCCO2)nn1 (stereo not shown) [Compound I-92] | – | inhibition at 25 µM: 25 to 50%
Cc1ccc(C#CC2CC2)cc1C(OCC(F)(F)F)c1cn(CC2OCC(C)(C)CO2)nn1 (stereo not shown) [Compound I-617, 4-((5-(cyclopropylethynyl)-2-methylphenyl)(2,2,2-trifluoroethoxy)methyl)-1-((5,5-dimethyl-1,3-dioxan-2-yl)methyl)-1H-1,2,3-triazole] | > 75% | IC50: ≤ 300 nM
C[S+]([O-])c1cc(C#CC2CC2)ccc1-c1cn(CC2CCCCO2)nn1 (stereo not shown) [Compound I-218] | ≤ 25% | –
CC(=O)N1CCOCC1Cn1cc(-c2ccc(C#CC3CC3)cc2C)nn1 (stereo not shown) [Compound I-99] | ≤ 25% | –
Cc1cc(C#CC2CC2)ccc1-c1cn(CC2COc3ccccc3O2)nn1 (stereo not shown) [Compound I-101] | 25 to 50% | –
CC1(C)COC(Cn2cc(-c3ncc(C#CC4CC4)cc3OC3CC3)nn2)OC1 [Compound I-702] | – | inhibition at 2 µM: > 75%; IC50: ≤ 300 nM
Cc1cc(N2CCN(Cc3ccccn3)CC2)ccc1-c1cn(CC2OCC(C)(C)CO2)cn1 [Compound I-682] | > 75% | IC50: 300 to 1000 nM
Cc1cc(C#CC2CC2)ccc1-n1nc(CC2CCCCO2)oc1=O (stereo not shown) [Compound I-12] | 25 to 50% | –
CN1Cc2c(C#CC3CC3)ccc(-c3cn(CC4CCCCO4)nn3)c2C1 (stereo not shown) [Compound I-268] | ≤ 25% | –
Cc1cc(C#CC2CC2)ccc1-c1cn(Cc2ccn(C)n2)nn1 [Compound I-543] | – | inhibition at 2 µM: ≤ 25%
Cc1ccc(C#CC2CC2)cc1S(=O)(=O)c1cn(CC2OCC(C)(C)CO2)nn1 [Compound I-783, 4-((5-(cyclopropylethynyl)-2-methylphenyl)sulfonyl)-1-((5,5-dimethyl-1,3-dioxan-2-yl)methyl)-1H-1,2,3-triazole] | ≤ 25% | –
C(#CC1CC1)c1ccc2c(c1)CCc1c-2nnn1CC1CCCCO1 (stereo not shown) [Compound I-303, 7-(cyclopropylethynyl)-3-((tetrahydro-2H-pyran-2-yl)methyl)-4,5-dihydro-3H-naphtho[1,2-d][1,2,3]triazole] | ≤ 25% | –

SMILES | inhibition at 10 µM | other results
Cc1cc(N2CCN(Cc3ccnn3C)CC2)ccc1-c1cn(CC2CCCCO2)nn1 (stereo not shown) [Compound I-581] | ≤ 25% | –
Cc1cc(C#CCN2CC(C)(C)C2)cnc1-c1cn(CCc2ncccn2)nn1 [Compound I-717] | ≤ 25% | –
Cc1ccc(OCc2ccccn2)cc1Cc1cn(CC2CCCCO2)nn1 (stereo not shown) [Compound I-444] | ≤ 25% | –
Cc1ccc(-c2ccc(-c3cn(C[C@H]4CCCCO4)nn3)nc2)cn1 [Compound I-32] | ≤ 25% | –
Cc1cc(N2CCC(C)(C)C2)cnc1-c1cn(CC2CCCCO2)nn1 (stereo not shown) [Compound I-555] | ≤ 25% | –
Cc1cc(N2CC(NS(C)(=O)=O)C2)ccc1-c1cn(CC2CCCCO2)nn1 (stereo not shown) [Compound I-486] | ≤ 25% | –
C[C@@H]1Cc2oc(C(=O)NCc3cnc(C4CC4)cn3)c(C(F)(F)F)c2-c2nn(C[C@H]3COCCO3)cc21 [Compound I-775] | – | IC50: ≤ 300 nM
CO[C@@H](c1cn(C[C@@H]2CCCCO2)nn1)c1cc(C#CC2CC2)ccc1C [Compound I-513] | – | inhibition at 2 µM: 25 to 50%; IC50: > 2000 nM
COCCn1cc(-c2ccc(C#CCNc3ccccc3)cc2C)nn1 [Compound I-161] | ≤ 25% | –
Cc1cc(N2CCC(Cc3ccccn3)CC2)cnc1-c1cn(CC2CCCCO2)nn1 (stereo not shown) [Compound I-503] | > 75% | –
CN(C)c1cc(N2CCOCC2)ccc1-c1cn(CC2OCC(C)(C)CO2)nn1 [Compound I-863] | – | inhibition at 2 µM: > 75%
COc1cc(C)c(-c2cn(CC3CCCCO3)nn2)cc1OC (stereo not shown) [Compound I-257] | ≤ 25% | –
Cc1cc(N2CC3(CC3)C2)cnc1-c1cn(CC2CCCCO2)nn1 (stereo not shown) [Compound I-571] | ≤ 25% | –
Cc1cc(N2CC3(CN(c4cccnc4)C3)C2)ccc1-c1cn(CC2OCC(C)(C)CO2)nn1 [Compound I-684] | > 75% | –
Cc1cc(N2CC(C)(CO)C2)c(F)cc1-c1cn(C[C@H]2CCCCO2)nn1 [Compound I-804] | – | inhibition at 1 µM (HEK293, single concentration 1 μM (designated A°)): 25 to 50%; IC50: 300 to 1000 nM
COCC1CN(c2ccc(-c3cn(CC4OCC(C)(C)CO4)nn3)c(N(C)C)c2)C1 [Compound I-755] | > 75% | –
Cc1ccc(-c2ccc(C3CN(CC4CCCCO4)C(=O)O3)c(C)c2)cn1 (stereo not shown) [Compound I-406, 5-(2-methyl-4-(6-methylpyridin-3-yl)phenyl)-3-((tetrahydro-2H-pyran-2-yl)methyl)oxazolidin-2-one] | ≤ 25% | –
